# Results reported in patent US20190185509A1, “2'2' CYCLIC DINUCLEOTIDES WITH PHOSPHONATE BOND ACTIVATING THE STING ADAPTOR PROTEIN” (INSTITUTE OF ORGANIC CHEMISTRY AND BIOCHEMISTRY ASCR, V.V.I., priority 2017, published 2019).
# pEC50: −log10 of the molar value.
# Columns and labels:
# AQ STING (G230A-R293Q) = molecular target: T1, AQ STING (G230A-R293Q) (Homo sapiens, UniProt Q86WV6, G230A/H232R/R293Q); test: Differential Scanning Fluorimetry (DSF) with AQ STING; format: binding; conditions: thermal shift vs apoprotein; truncated human AQ STING 0.1 mg/ml; 150 μM CDN
# T1 construct: truncated human WT STING or AQ STING (amino acid residues 140-343) with N-terminal 8×His and SUMO tag; 8xHis-SUMO (N, cleaved yes); made in house; host or cells: E. coli Rosetta-gami B (DE3)
# T1 sequence (Q86WV6 140-343 G230A/H232R/R293Q): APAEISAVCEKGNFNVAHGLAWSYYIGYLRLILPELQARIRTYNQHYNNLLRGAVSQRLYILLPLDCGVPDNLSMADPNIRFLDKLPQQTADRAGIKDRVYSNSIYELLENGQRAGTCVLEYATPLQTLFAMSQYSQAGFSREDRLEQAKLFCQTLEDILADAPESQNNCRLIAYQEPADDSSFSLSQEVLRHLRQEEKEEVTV
# Experimental: (§1) WT STING and AO STING Proteins
# (§2) Purified PCR products were cleaved with restriction enzymes BamHI (cat. #R0136S, NEB, Ipswich, USA) and NotI (cat. #R0189S, NEB, Ipswich, USA) and cloned into the pSUMO vector linearized with the identical enzymes.
# (§3) DNase I (cat. #D5025, Sigma Aldrich, Czech Republic) and RNase A (cat. #R6513, Sigma Aldrich, Czech Republic) were added (final concentration 50 μg/ml) together with MgCl2 (final concentration 5 mmol·l^−1) to the homogenate and bacteria were lysed using French Press G-M™ High-Pressure Cell Press Homogenizer (1500 psi, 3 cycles). […] The resin was poured into a chromatography column, washed with 50 ml buffer A (50 mmol·l^−1 TrisCl (pH 8.0), 800 mmol·l^−1 NaCl, 3 mmol·l^−1 β-mercaptol; 10% glycerol; 20 mmol·l^−1 imidazole) and 8-His-SUMO tagged STING proteins were eluted with 15 ml buffer A containing 300 mmol·l^−1 imidazole. […] Proteins were concentrated with Amicon® Ultra-15 10 K device (cat. #UFC901008, Merck Millipore, Billerica, USA) and flash frozen in liquid N2.
# (§4) Differential Scanning Fluorimetry with WT STING and AQ STING
# (§5) 20 μL solutions of the reaction mixtures were pipetted in triplicates into 96 well optical reaction plates and thermal denaturation of samples were performed on real time PCR cycler (LightCycler R 480 Instrument II-Roche, Basel, Switzerland). The first derivative of the thermal denaturation curves was performed to calculate denaturing temperatures of STING-CDN complexes and STING apoproteins. The thermal shift for each CDN was calculated by subtracting the average denaturing temperature of STING apoprotein from the average denaturing temperature of STING CDN complex.
# WT STING [1] = molecular target: T2, WT STING (Homo sapiens, UniProt Q86WV6, H232R); test: Digitonin assay using 293T wtSTING-FL reporter cells; format: cell-based; conditions: 293T wtSTING-FL cells, ISRE firefly luciferase reporter; 30 min in Digitonin buffer, then 5 hours; 8-point dose-response
# Source text: ISRE Reporter Plasmid (pGL64.27-4×ISRE)
# Two complementary oligonucleotides of the sequence […] […] […] […] […] […] […] The oligonucleotides were mixed in equal molar amounts, hybridized, and cleaved by restriction endonucleases HindIII (cat. #. R0104S, NEB, Ipswich, USA) and BglII (cat. #R0144S, NEB, Ipswich, USA). Ultimately, they were ligated into plasmid pGL4.27 (cat. #E6651, Promega, Madison, USA) linearized with the same enzymes. As result the sequence with four ISRE sites was placed upstream of the minimum promoter of firefly luciferase reporter gene.
# After 5 minutes incubation at room temperature (RT), 250 μL of the mixture was added dropwise to the cells in one well. Cells were incubated 36 hours at 37° C. with 5% CO2, and then detached with 0.05% Trypsin and 0.22 g/L EDTA (both cat. #L0941, Biowest, Riverside, USA).
# Transfected cells were seeded onto poly-D-lysine coated six well plates at density 50,000 cells per 1 cm^2 in DMEM medium with high glucose containing 10% heat inactivated FBS, 30 μg/mL blasticidin (cat. #ant-bl-05, InvivoGen, San Diego, USA), 0.06 mg/ml Penicillin G and 0.1 mg/ml Streptomycin Sulfate (both cat. #. L0018, Biowest, Riverside, USA). The medium was replenished every 3-4 days until visible colonies of cells resistant to blasticidin were formed.
# Blasticidin resistant cells stably expressing WT STING were further transfected with pGL64.27-4×ISRE plasmid following the same procedure as described above. […] Homogeneous culture of stably double transfected cells was prepared by limiting dilution of cells in 96 well plates and wells with cells were selected that originated from a single cell.
# The medium was removed next day and three fold serial dilutions of compounds in Digitonin buffer containing 50 mmol·l^−1 HEPES (cat. #H3375, Sigma Aldrich, Czech Republic) pH 7.0, 100 mmol·l^−1 KCl, 3 mmol·l^−1 MgCl2, 0.1 mmol·l^−1 DTT (cat. #D0632, Sigma Aldrich, Czech Republic), 85 mmol·l^−1 Sucrose (cat. #S7903, Sigma Aldrich, Czech Republic), 0.2% BSA (cat. #A2153, Sigma Aldrich, Czech Republic), 1 mmol·l^−1 ATP (cat. #A1852, Sigma Aldrich, Czech Republic), 0.1 mmol·l^−1 GTP (cat. #G8877, Sigma Aldrich, Czech Republic), and 10 μg/mL Digitonin A (cat. #D141, Sigma Aldrich, Czech Republic) were added to the cells. The buffer was removed after 30 minutes incubation at 37° C. with 5% CO2, the cells were washed once with 100 μl of cultivation medium, and 100 μl of medium was added to each well. The plates with cells were incubated for 5 hours at 37° C. with 5% CO2, 50 μl of the medium was removed and 30 μl of ONE-Glo™ Luciferase Assay System reagent (cat. #E6120, Promega, Madison, USA) was added to each well. Luminescence was read on Synergy H1 (Biotek, Winooski, USA).
# Target sequence in this assay (Q86WV6 whole entry H232R): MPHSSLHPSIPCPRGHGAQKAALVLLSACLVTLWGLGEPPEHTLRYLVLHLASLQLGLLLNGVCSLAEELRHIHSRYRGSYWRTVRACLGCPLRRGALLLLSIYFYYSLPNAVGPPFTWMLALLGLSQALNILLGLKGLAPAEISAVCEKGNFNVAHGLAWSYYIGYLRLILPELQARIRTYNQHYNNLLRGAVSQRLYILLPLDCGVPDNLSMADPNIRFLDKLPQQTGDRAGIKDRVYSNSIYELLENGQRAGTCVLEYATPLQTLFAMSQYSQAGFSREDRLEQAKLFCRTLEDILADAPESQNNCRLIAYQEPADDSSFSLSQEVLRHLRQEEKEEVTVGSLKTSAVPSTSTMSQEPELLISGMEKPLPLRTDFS
# WT STING [2] = molecular target: T2, WT STING; test: Differential Scanning Fluorimetry (DSF) with WT STING; format: binding; parameters: truncated human WT STING or AQ STING (amino acid residues 140-343) with N-terminal 8×His and SUMO tag; 8xHis-SUMO (N, cleaved yes); made in house; host or cells: E. coli Rosetta-gami B (DE3); conditions: thermal shift vs apoprotein; truncated human WT STING 0.1 mg/ml; 150 μM CDN
# Experimental: as §1, §2, §3, §4, §5
# Target sequence in this assay (Q86WV6 140-343 H232R): as the sequence (Q86WV6 140-343 G230A/H232R/R293Q) above, with A91G, Q154R counted along it
DSF ΔTm AQ STING (AQ STING (G230A-R293Q)),pEC50 (WT STING [1]),DSF ΔTm WT STING (WT STING [2]),Compound
20.8 °C,5.63,0.7 °C,"Nc1ncnc2c1ncn2[C@@H]1O[C@@H]2OCP(=O)(O)O[C@@H]3[C@H](O)[C@@H](COP(=O)(O)O[C@@H]1[C@@H]2O)O[C@H]3n1cnc2c(N)ncnc21 [Compound 14, (1R,6R,8R,9R,14R,16R,17S,18R)-8,16-bis(6-amino-9H-purin-9-yl)-3,11,17,18-tetrahydroxy-2,4,7,10,13,15-hexaoxa-3,11-diphosphatricyclo[12.2.1.1^6,9]octadecane 3,11-dioxide]"
5.5 °C,4.79,1.7 °C,"Nc1ncnc2c1ncn2[C@@H]1O[C@@H]2COP(=O)(O)O[C@H]3[C@H](O)[C@@H](COCP(=O)(O)O[C@@H]1[C@@H]2O)O[C@H]3n1cnc2c(N)ncnc21 [Compound 15, (1S,6R,8R,9R,15R,17R,18R,19R)-8,17-bis(6-amino-9H-purin-9-yl)-3,11,18,19-tetrahydroxy-2,4,7,10,13,16-hexaoxa-3,11-diphosphatricyclo[13.2.1.16,9]nonadecane 3,11-dioxide]"

# The next lines start with the compound.
Compound,DSF ΔTm AQ STING (AQ STING (G230A-R293Q)),pEC50 (WT STING [1]),DSF ΔTm WT STING (WT STING [2])
"C[C@]12OCP(=O)(O)O[C@H]3[C@H](n4cnc5c(N)ncnc54)O[C@](C)(OCP(=O)(O)O[C@@H]([C@H](n4cnc5c(N)ncnc54)O1)[C@@H]2O)[C@H]3O [Compound 13, (1R,6R,8R,9R,14R,16R,17S,18S)-8,16-bis(6-amino-9H-purin-9-yl)-3,11,17,18-tetrahydroxy-6,14-dimethyl-2,5,7,10,13,15-hexaoxa-3,11-diphosphatricyclo[12.2.1.1^6,9]octadecane 3,11-dioxide]",–,–,0.6 °C
"Nc1ncnc2c1ncn2[C@@H]1O[C@@H]2COP(=O)(O)O[C@@H]3[C@H](O)[C@@H](COCP(=O)(O)O[C@@H]1[C@@H]2O)O[C@H]3n1cnc2c(N)ncnc21 [Compound 12, (1R,6R,8R,9R,15R,17R,18R,19R)-8,17-bis(6-amino-9H-purin-9-yl)-3,11,18,19-tetrahydroxy-2,4,7,10,13,16-hexaoxa-3,11-diphosphatricyclo[13.2.1.1^6,9]nonadecane 3,11-dioxide]",6.3 °C,5.22,2.0 °C
"Nc1ncnc2c1ncn2[C@@H]1O[C@@H]2OCP(=O)(O)O[C@@H]3[C@H](O)[C@@H](OCP(=O)(O)O[C@@H]1[C@@H]2O)O[C@H]3n1cnc2c(N)ncnc21 [Compound 11, (1R,6R,8R,9R,14R,16R,17S,18S)-8,16-bis(6-amino-9H-purin-9-yl)-3,11,17,18-tetrahydroxy-2,5,7,10,13,15-hexaoxa-3,11-diphosphatricyclo[12.2.1.1^6,9]octadecane 3,11-dioxide]",7.9 °C,5.38,2.5 °C
